# Structures can show the parent of a compound that is named as a salt. Where two headings read alike, the source gives them in different places.
# Legend:
# [1] = Example 23: Bz-HC.HCl API single dose intranasal human PK study vs HB API; assay type: in vivo, humans; settings: 13.34 mg Bz-HC•HCl API; for AUC(0-t) / AUC(0-inf) / half-life / Cmax: 13.34 mg
# Source text: This was a randomized, double blind, single dose, two way crossover, single center study in recreational non-dependent opioid users. Subjects participated in a Screening Phase (Visit 1), Naloxone Challenge Test (Visit 2, Check in), Treatment Phase (Visit 2, inpatient) and Follow up Phase (Visit 3).
# A sufficient number of male and female subjects between the ages of 18-55 years were to be screened in order to enroll approximately 30 subjects into the Treatment Phase to ensure 24 completers.
# [2] = humans, fasted, oral, equimolar doses
# [3] = Water solubility / feasibility of intranasal or intravenous dosing; settings: water
# [4] = Example 22: intranasal crushed / oral intact tablets human PK study vs HB/APAP
compound,measurement,setting,value
"COc1ccc2c3c1O[C@H]1C(OC(=O)c4ccccc4)=CC[C@H]4[C@@H](C2)N(C)CC[C@]314 [Bz-HC•HCl, benzoate-hydrocodone hydrochloride]",Bz-HC plasma concentrations at 24 hours post-dose (in words),[1]; all subjects,below the limit of quantification
same,Tmax,"[1]; both sexes, human, plasma, inhaled or intranasal, read-out: Tmax of Bz-HC, Median (Min-Max)",0.25 h
same,AUC(0-t),"[1]; both sexes, human, plasma, inhaled or intranasal, n = 22, read-out: AUC0-4 h of Bz-HC, Mean (SD)",3.14 ng·h/mL
same,AUC(0-t),"[1]; both sexes, human, plasma, inhaled or intranasal, n = 22, read-out: AUC0-4 h of Bz-HC, Median (Min-Max)",2.36 ng·h/mL
same,AUC(0-t),"[1]; both sexes, human, plasma, inhaled or intranasal, n = 22, read-out: AUC0-6 h of Bz-HC, Mean (SD)",3.4 ng·h/mL
same,AUC(0-t),"[1]; both sexes, human, plasma, inhaled or intranasal, n = 22, read-out: AUC0-6 h of Bz-HC, Median (Min-Max)",2.56 ng·h/mL
same,AUC(0-t),"[1]; both sexes, human, plasma, inhaled or intranasal, n = 22, read-out: AUC0-8 h of Bz-HC, Mean (SD)",3.51 ng·h/mL
same,AUC(0-t),"[1]; both sexes, human, plasma, inhaled or intranasal, n = 22, read-out: AUC0-8 h of Bz-HC, Median (Min-Max)",2.62 ng·h/mL
same,AUC(0-t),"[1]; both sexes, human, plasma, inhaled or intranasal, n = 22, read-out: AUC0-10 h of Bz-HC, Mean (SD)",3.56 ng·h/mL
same,AUC(0-t),"[1]; both sexes, human, plasma, inhaled or intranasal, n = 22, read-out: AUC0-10 h of Bz-HC, Median (Min-Max)",2.64 ng·h/mL
same,AUC(0-t),"[1]; both sexes, human, plasma, inhaled or intranasal, n = 22, read-out: AUC0-12 h of Bz-HC, Mean (SD)",3.59 ng·h/mL
same,AUC(0-t),"[1]; both sexes, human, plasma, inhaled or intranasal, n = 22, read-out: AUC0-12 h of Bz-HC, Median (Min-Max)",2.64 ng·h/mL
same,AUC(0-t),"[1]; both sexes, human, plasma, inhaled or intranasal, n = 22, read-out: AUC0-24 h of Bz-HC, Mean (SD)",3.61 ng·h/mL
same,AUC(0-t),"[1]; both sexes, human, plasma, inhaled or intranasal, n = 22, read-out: AUC0-24 h of Bz-HC, Median (Min-Max)",2.65 ng·h/mL
same,AUC(0-inf),"[1]; both sexes, human, plasma, inhaled or intranasal, n = 22, read-out: AUCinf of Bz-HC, Mean (SD)",3.62 ng·h/mL
same,AUC(0-inf),"[1]; both sexes, human, plasma, inhaled or intranasal, n = 22, read-out: AUCinf of Bz-HC, Median (Min-Max)",2.65 ng·h/mL
same,half-life,"[1]; both sexes, human, plasma, inhaled or intranasal, n = 22, read-out: t1/2 of Bz-HC, Mean (SD) (converted)",1.42 h
same,half-life,"[1]; both sexes, human, plasma, inhaled or intranasal, n = 22, read-out: t1/2 of Bz-HC, Median (Min-Max) (converted)",1.3 h
same,AUC(0-t),"[1]; both sexes, human, plasma, inhaled or intranasal, n = 23, read-out: AUC0-1.5 h of Bz-HC, Mean (SD)",2.06 ng·h/mL
same,AUC(0-t),"[1]; both sexes, human, plasma, inhaled or intranasal, n = 23, read-out: AUC0-1.5 h of Bz-HC, Median (Min-Max)",1.68 ng·h/mL
same,AUC(0-t),"[1]; both sexes, human, plasma, inhaled or intranasal, n = 23, read-out: AUC0-2 h of Bz-HC, Mean (SD)",2.39 ng·h/mL
same,AUC(0-t),"[1]; both sexes, human, plasma, inhaled or intranasal, n = 23, read-out: AUC0-2 h of Bz-HC, Median (Min-Max)",1.93 ng·h/mL
same,AUC(0-t),"[1]; both sexes, human, plasma, inhaled or intranasal, n = 23, read-out: AUC0-3 h of Bz-HC, Mean (SD)",2.79 ng·h/mL
same,AUC(0-t),"[1]; both sexes, human, plasma, inhaled or intranasal, n = 23, read-out: AUC0-3 h of Bz-HC, Median (Min-Max)",2.19 ng·h/mL
same,AUC(0-t),"[1]; both sexes, human, plasma, inhaled or intranasal, read-out: AUC0-0.0833 h of Bz-HC, Mean (SD)",0.0153 ng·h/mL
same,AUC(0-t),"[1]; both sexes, human, plasma, inhaled or intranasal, read-out: AUC0-0.5 h of Bz-HC, Mean (SD)",0.7 ng·h/mL
same,AUC(0-t),"[1]; both sexes, human, plasma, inhaled or intranasal, read-out: AUC0-0.5 h of Bz-HC, Median (Min-Max)",0.666 ng·h/mL
same,AUC(0-t),"[1]; both sexes, human, plasma, inhaled or intranasal, read-out: AUC0-0.75 h of Bz-HC, Mean (SD)",1.15 ng·h/mL
same,AUC(0-t),"[1]; both sexes, human, plasma, inhaled or intranasal, read-out: AUC0-0.75 h of Bz-HC, Median (Min-Max)",0.977 ng·h/mL
same,AUC(0-t),"[1]; both sexes, human, plasma, inhaled or intranasal, read-out: AUC0-1 h of Bz-HC, Mean (SD)",1.5 ng·h/mL
same,AUC(0-t),"[1]; both sexes, human, plasma, inhaled or intranasal, read-out: AUC0-1 h of Bz-HC, Median (Min-Max)",1.24 ng·h/mL
same,AUC(0-t),"[1]; both sexes, human, plasma, inhaled or intranasal, read-out: AUClast of Bz-HC, Mean (SD)",3.24 ng·h/mL
same,AUC(0-t),"[1]; both sexes, human, plasma, inhaled or intranasal, read-out: AUClast of Bz-HC, Median (Min-Max)",2.41 ng·h/mL
same,Cmax,"[1]; both sexes, human, plasma, inhaled or intranasal, read-out: Cmax of Bz-HC, Mean (SD)",2.41 ng/mL
same,Cmax,"[1]; both sexes, human, plasma, inhaled or intranasal, read-out: Cmax of Bz-HC, Median (Min-Max)",2.16 ng/mL
same,concentration at […],"[1]; both sexes, human, plasma, other: intranasal, at 0.25 hour post-dose, read-out: highest mean (SD) plasma concentration of Bz-HC",2.01 ng/mL
same,AUC(0-t),"[1]; both, human, plasma, inhaled or intranasal, AUC0-[…] of Bz-HC, Mean (SD), read-out: AUC0-0.25 h of Bz-HC, Mean (SD)",0.213 ng·h/mL
same,AUC(0-t),"[1]; both, human, plasma, inhaled or intranasal, AUC0-[…] of Bz-HC, Median (Min-Max), read-out: AUC0-0.25 h of Bz-HC, Median (Min-Max)",0.197 ng·h/mL
same,bioequivalence to Norco (in words),[2],bioequivalent
same,water solubility (in words),[3],much less soluble in water than the hydrocodone bitartrate
same,half-life,"[4]; human, plasma, inhaled or intranasal",1.11 h
same,"Tlast of Bz-HC (time of the last quantifiable concentration), median",[4]; intranasal crushed Bz-HC.HCl/APAP 13.34/650 mg,6.22 h

# — patent US10351573B2, “Benzoic acid, benzoic acid derivatives and heteroaryl carboxylic acid conjugates of hydrocodone, prodrugs, methods of making and uses thereof” (KemPharm, Inc., priority 2009, dated 2019)
